The IC50 is the concentration that gives 50% inhibition. Broadly, the CC50 is the concentration that lowers cell viability or growth by half. By GI50 is commonly meant the concentration giving 50% growth inhibition.

We go through 17 compounds from ChEMBL document CHEMBL1201862, “PubChem BioAssay data set” (2004).

Active and inactive are the calls of the source.

For experiment [1], the target named is T1, Sentrin-specific protease 6 (Homo sapiens, UniProt Q9GZR1).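 Note: Luminescence-based dose-response confirmatory assay of SENP6 inhibition, following up an ultra-high-throughput screen.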
T1 sequence (Q9GZR1 whole entry): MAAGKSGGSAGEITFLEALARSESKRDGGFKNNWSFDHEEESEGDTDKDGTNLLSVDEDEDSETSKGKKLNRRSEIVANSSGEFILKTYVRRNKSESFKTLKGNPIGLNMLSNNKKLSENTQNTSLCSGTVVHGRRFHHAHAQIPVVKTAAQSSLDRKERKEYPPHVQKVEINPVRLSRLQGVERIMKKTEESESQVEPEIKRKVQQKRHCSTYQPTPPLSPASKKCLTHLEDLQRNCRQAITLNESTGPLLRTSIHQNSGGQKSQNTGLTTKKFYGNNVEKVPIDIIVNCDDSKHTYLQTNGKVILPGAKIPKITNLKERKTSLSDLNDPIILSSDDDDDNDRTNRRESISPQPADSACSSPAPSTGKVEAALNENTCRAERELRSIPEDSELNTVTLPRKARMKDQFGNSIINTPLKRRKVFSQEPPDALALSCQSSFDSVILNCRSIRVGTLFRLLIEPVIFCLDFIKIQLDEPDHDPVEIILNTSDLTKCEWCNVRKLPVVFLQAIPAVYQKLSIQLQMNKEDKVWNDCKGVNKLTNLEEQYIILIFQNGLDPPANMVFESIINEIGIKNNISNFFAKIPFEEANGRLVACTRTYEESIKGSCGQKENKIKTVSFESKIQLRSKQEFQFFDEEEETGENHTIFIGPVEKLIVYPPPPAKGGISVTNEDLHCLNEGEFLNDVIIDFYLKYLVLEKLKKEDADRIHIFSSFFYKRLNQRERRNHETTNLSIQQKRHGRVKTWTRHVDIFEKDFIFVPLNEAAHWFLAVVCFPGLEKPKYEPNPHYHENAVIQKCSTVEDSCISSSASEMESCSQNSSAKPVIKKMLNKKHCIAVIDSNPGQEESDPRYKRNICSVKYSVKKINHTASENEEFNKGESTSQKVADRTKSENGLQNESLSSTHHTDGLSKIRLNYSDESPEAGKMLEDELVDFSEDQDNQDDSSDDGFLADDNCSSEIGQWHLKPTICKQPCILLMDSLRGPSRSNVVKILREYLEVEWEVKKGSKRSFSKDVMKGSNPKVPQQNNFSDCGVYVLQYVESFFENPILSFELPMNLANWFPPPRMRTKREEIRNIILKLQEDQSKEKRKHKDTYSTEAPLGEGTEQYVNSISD
Format: functional.

For experiment [2], the target named is T2, Sentrin-specific protease 7 (Homo sapiens, UniProt Q9BQF6).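 Note: Luminescence-based dose-response confirmation of ultra-high-throughput screening hits, measuring inhibition of SENP7.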
T2 sequence (Q9BQF6 whole entry): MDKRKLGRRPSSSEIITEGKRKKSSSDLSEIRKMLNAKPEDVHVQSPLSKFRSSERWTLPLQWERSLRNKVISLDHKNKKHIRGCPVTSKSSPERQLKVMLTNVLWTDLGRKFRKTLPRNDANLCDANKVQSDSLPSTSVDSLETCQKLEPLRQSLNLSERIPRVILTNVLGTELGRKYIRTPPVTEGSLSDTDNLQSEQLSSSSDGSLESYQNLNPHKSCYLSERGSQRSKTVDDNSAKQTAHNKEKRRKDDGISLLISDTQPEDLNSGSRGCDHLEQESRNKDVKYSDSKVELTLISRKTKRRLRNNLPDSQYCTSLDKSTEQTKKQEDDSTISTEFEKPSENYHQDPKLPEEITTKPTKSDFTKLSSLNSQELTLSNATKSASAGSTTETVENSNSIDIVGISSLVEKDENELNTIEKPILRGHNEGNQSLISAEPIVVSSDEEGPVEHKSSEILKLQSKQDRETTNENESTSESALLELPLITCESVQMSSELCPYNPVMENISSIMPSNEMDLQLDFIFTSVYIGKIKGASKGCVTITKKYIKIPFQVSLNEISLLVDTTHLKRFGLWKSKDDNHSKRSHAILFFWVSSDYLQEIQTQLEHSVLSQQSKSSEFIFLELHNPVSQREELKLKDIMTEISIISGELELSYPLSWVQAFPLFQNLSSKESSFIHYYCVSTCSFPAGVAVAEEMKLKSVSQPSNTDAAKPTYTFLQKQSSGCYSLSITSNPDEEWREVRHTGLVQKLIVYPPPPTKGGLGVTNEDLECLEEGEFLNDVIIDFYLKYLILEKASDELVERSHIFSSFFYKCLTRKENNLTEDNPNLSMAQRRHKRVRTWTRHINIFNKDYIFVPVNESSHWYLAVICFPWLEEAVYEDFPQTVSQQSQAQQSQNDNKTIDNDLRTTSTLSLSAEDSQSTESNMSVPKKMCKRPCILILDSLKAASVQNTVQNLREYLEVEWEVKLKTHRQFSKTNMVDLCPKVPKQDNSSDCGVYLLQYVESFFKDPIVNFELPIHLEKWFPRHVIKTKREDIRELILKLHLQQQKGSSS
The class given is functional.

The target in a further experiment is T3, Caspase-3 (Homo sapiens, UniProt P42574).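 Note: Dose-response selectivity test against caspase-3 for candidate inhibitors of sentrin-specific proteases (SENPs).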
T3 sequence (P42574 whole entry): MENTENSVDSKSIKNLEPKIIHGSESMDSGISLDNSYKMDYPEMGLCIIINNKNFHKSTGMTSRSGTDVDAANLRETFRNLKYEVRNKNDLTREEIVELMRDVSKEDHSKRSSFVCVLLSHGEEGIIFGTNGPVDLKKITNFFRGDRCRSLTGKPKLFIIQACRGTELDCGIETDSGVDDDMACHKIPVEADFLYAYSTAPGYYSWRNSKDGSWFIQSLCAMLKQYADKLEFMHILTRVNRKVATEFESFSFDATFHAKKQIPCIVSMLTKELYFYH
The class given is functional.

Experiment [3] has as its target T4, Sentrin-specific protease 8 (Homo sapiens, UniProt Q96LD8).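 Note: luminescence read-out of SENP8 inhibition, dose-response confirmation following an ultra-high-throughput screen.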
T4 sequence (Q96LD8 whole entry): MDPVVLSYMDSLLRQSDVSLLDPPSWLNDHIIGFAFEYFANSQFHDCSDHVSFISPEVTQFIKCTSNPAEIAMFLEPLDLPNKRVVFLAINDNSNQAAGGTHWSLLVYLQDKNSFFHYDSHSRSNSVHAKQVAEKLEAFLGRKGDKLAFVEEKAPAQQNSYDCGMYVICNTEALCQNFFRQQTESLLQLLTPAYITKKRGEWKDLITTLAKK
Format: functional.

The next experiment has as its target Large T antigen (Simian virus 40, UniProt P03070). The class given is functional, Betapolyomavirus macacae.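 Note: Confirmatory-stage PubChem screen for compounds that inhibit SV40 T antigen.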
Experiment [4] can be described thus: viability of uninfected HEp-2 cells – cell-based, HTS, cytotoxicity control for RSV inhibitor project, dose response (AID 2410). Format: functional. As to conditions: human respiratory syncytial virus.
In experiment [5] the target is T5, Rac GTPase-activating protein 1 (Homo sapiens, UniProt Q9H0H5).
T5 sequence (Q9H0H5 whole entry): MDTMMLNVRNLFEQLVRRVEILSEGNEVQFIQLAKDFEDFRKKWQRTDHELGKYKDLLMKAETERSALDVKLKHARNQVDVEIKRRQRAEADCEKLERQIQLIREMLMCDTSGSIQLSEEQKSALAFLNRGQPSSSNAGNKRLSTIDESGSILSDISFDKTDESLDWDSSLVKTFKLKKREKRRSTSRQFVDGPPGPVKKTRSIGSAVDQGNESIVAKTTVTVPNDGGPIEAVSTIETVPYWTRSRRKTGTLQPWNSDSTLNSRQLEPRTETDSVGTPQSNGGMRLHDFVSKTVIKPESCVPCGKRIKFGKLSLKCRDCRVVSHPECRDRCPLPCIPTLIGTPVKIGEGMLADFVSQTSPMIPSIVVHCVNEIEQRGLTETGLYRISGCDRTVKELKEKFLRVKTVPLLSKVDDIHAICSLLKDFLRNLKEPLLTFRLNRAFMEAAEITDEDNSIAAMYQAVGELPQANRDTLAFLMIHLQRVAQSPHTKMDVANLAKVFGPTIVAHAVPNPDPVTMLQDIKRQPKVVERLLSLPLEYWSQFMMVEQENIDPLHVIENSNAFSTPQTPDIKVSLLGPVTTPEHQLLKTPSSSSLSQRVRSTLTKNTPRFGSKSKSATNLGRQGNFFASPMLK
As to the kind of experiment: blockers of MgcRacGAP-driven Rac1 GTP hydrolysis – biochemical, ADP Hunter fluorescence, primary and confirmatory, confirmation (AID 624330). Format: functional.

The nature of experiment [6]: A Cell Based Secondary Assay To Explore Cytotoxicity of Compounds that Sensitize Mycobacterium Tuberculosis to Beta-Lactam Antibiotics. Format: functional.
For a further experiment, the system named is SN12K1. As to the kind of experiment: cells. Format: functional. As to conditions: Homo sapiens.

Chain of Large T antigen (P03070 whole entry): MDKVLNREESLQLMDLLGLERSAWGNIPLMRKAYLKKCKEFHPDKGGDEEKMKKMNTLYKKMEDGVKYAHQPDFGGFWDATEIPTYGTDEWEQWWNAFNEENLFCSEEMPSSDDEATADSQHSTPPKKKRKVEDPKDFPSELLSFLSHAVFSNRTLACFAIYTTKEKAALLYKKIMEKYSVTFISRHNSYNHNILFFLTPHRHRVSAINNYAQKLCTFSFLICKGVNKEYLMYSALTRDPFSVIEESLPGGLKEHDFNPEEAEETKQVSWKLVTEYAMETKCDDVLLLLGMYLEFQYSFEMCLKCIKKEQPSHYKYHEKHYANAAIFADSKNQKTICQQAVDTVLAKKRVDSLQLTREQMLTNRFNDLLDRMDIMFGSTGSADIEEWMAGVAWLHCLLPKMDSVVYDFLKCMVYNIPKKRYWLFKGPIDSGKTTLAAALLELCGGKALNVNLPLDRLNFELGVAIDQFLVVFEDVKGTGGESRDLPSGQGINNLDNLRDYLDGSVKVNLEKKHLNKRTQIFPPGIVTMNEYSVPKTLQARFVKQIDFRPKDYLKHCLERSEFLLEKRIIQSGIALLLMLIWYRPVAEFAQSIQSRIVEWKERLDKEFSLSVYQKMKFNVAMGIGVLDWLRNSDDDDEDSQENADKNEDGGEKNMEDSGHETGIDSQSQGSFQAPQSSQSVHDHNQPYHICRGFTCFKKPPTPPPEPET

As to `Nc1nc2ccccc2n1/N=C/c1ccc(Br)cc1`, the IC50 in experiment [1] is 5.96 µM (active); in experiment [2], 4.21 µM (active); at Caspase-3, 16.1 µM (active); in [3] it was 5.66 µM (active).
Regarding `CCNc1nc(NCC)nc(N/N=C/c2ccc(O)c(OC)c2)n1`, on Large T antigen, the IC50 was 11 µM (active).
As for `CC(C)(c1cc(Br)c(O)c(Br)c1)c1cc(Br)c(O)c(Br)c1`, the CC50 in [4] is 24.9 µM (active).
As to `N=C1/C(=N\Nc2ccccc2F)C(=O)NN1c1ccccc1`, the IC50 is 2.09 µM (active) in [1], 2.52 µM (active) in experiment [2], 16.4 µM (active) at Caspase-3 and > 100 µM (inactive) in experiment [3].
As for `CCCOC(=O)c1cc(-c2ccc(C=O)o2)ccc1Cl`, the CC50 in [4] is 36.9 µM (active).
`COc1ccc(/C=N\NC(=O)c2ccc(O)nn2)cc1O`: the IC50 is 14.3 µM (active) on Large T antigen and 26.5 µM (active) in [5].
`Cc1ccc(O)c(-c2cc(-c3ccccc3F)[nH]n2)c1`: the IC50 in experiment [1] was 21.9 µM (active); in experiment [2] it was 3.4 µM (active); at Caspase-3 it was 31.9 µM (active); in [3], 4.59 µM (active). For the same compound, the CC50 in experiment [6] was > 40 µM (active).
As to `COc1ccc(Nc2nc(-c3cccs3)nc3ccccc23)c(OC)c1`, in experiment [4], the CC50 is 32.9 µM (active).
Take `COc1ccc(-c2nc(O)c3cnccn23)cc1`: the IC50 on Large T antigen was 24.2 µM (active).
For the compound `C=C(C)c1sc(-c2ccc(Cl)cc2)nc1C`, the IC50 in experiment [1] was 21.4 µM (active); in experiment [2], 6.67 µM (active); on Caspase-3, 13.4 µM (active); in [3], 69.1 µM (active).
Turning to `Nc1ccn(C2C=C(CO)C(O)C2O)c(=O)c1` (centres undefined), the GI50 in the experiment with SN12K1 was > 625 µM (inactive).
As to `CCOC(=O)C1C(=O)C=C(c2ccc(C)cc2)CC1c1ccccc1` (centres undefined), the CC50 in experiment [4] is 35.4 µM (active).
As to `NC(=NOC(=O)c1ccc(Cl)cc1Cl)c1ccc(Cl)cc1`, the IC50 in experiment [1] is > 100 µM (inactive); in experiment [2] it was 9.34 µM (active); at Caspase-3 it was 35.6 µM (active); in experiment [3], > 100 µM (inactive).
For `CCOC(=O)C1=C(C)N(c2ccccc2)C(=O)/C1=C\c1ccc(O)c(OC)c1`, the IC50 at Large T antigen was 47.1 µM (active).
Take `CCc1nnc(S)n1/N=C/c1ccc(N(C)c2ccccc2)cc1`: the CC50 in experiment [4] is 28.1 µM (active).
Still for that read-out and setting: the figure for `Cc1ccc(-n2nc3c(=O)n(CCCC(=O)NCc4cccc(F)c4)nc(C)c3c2C)cc1` is > 50 µM (active); for `CSc1nc(C(=O)N2CCc3c([nH]c4ccccc34)C2c2ccccn2)cs1` (centres undefined) it is 30.1 µM (active).
